Laboratory results from patent US20220125051A1, “PRE-HARVEST DESICCATION METHOD” (SYNGENTA CROP PROTECTION AG, priority 2019, published 2022).
Where two headings read alike, the source gives them in different places.

Tests used:
Assay in all cases: Post-emergence efficacy, Method A
Assay type in all cases: in vivo
[1] = tested on: Amaranthus palmeri (AMAPA); details: evaluated after 13 days; for pest or weed control at 500 g/ha: Amaranthus palmeri, post-emergence, 312 h
Experimental: (§1) Seeds of a variety of test species were sown in standard soil in pots. After cultivation for 14 days (post-emergence) under controlled conditions in a glasshouse (at 24/16° C., day/night; 14 hours light; 65% humidity), the plants were sprayed with an aqueous spray solution derived from the dissolution of the technical active ingredient formula (I) in a small amount of acetone and a special solvent and emulsifier mixture referred to as IF50 (11.12% Emulsogen EL360 TM+44.44% N-methylpyrrolidone+44.44% Dowanol DPM glycol ether), to create a 50 g/I solution which was then diluted to required concentration using 0.25% or 1% Empicol ESC70 (Sodium lauryl ether sulphate)+1% ammonium sulphate as diluent. The test plants were then grown in a glasshouse under controlled conditions (at 24/16° C., day/night; 14 hours light; 65% humidity) and watered twice daily. After 13 days the test was evaluated (100=total damage to plant; 0=no damage to plant).
(§2) Ipomoea hederacea (IPOHE), Euphorbia heterophylla (EPHHL), Chenopodium album (CHEAL), Amaranthus palmeri (AMAPA), Lolium perenne (LOLPE), Digitaria sanguinalis (DIGSA), Eleusine indica (ELEIN), Echinochloa crus-galli (ECHCG), Setaria faberi (SETFA)

[2] = tested on: Chenopodium album (CHEAL); details: evaluated after 13 days; for pest or weed control at 500 g/ha: Chenopodium album, post-emergence, 312 h
Experimental: as §1, §2

[3] = tested on: Digitaria sanguinalis (DIGSA); details: evaluated after 13 days; for pest or weed control at 500 g/ha: Digitaria sanguinalis, post-emergence, 312 h
Experimental: as §1, §2

[4] = tested on: Echinochloa crus-galli (ECHCG); details: evaluated after 13 days; for pest or weed control at 500 g/ha: Echinochloa crus-galli, post-emergence, 312 h
Experimental: as §1, §2

Eleusine indica (ELEIN) = details: evaluated after 13 days; for pest or weed control at 500 g/ha: Eleusine indica, post-emergence, 312 h
Experimental: as §1, §2

[5] = tested on: Euphorbia heterophylla (EPHHL); details: evaluated after 13 days; for pest or weed control at 500 g/ha: Euphorbia heterophylla, post-emergence, 312 h
Experimental: as §1, §2

[6] = tested on: Ipomoea hederacea (IPOHE); details: evaluated after 13 days; for pest or weed control at 500 g/ha: Ipomoea hederacea, post-emergence, 312 h
Experimental: as §1, §2

Lolium perenne (LOLPE) = details: evaluated after 13 days; for pest or weed control at 500 g/ha: Lolium perenne, post-emergence, 312 h
Experimental: as §1, §2

Setaria faberi (SETFA) = details: evaluated after 13 days; for pest or weed control at 500 g/ha: Setaria faberi, post-emergence, 312 h
Experimental: as §1, §2

[7] = Application Rate 500 g/Ha, Method A
[8] = Application rate 500 g/Ha, 100=total damage to plant, 0=no damage to plant, read-out: Control of weed species after post-emergence application, AMAPA
[9] = Application rate 500 g/Ha, 100=total damage to plant, 0=no damage to plant, read-out: Control of weed species after post-emergence application, CHEAL
[10] = Application rate 500 g/Ha, 100=total damage to plant, 0=no damage to plant, read-out: Control of weed species after post-emergence application, DIGSA
[11] = Application rate 500 g/Ha, 100=total damage to plant, 0=no damage to plant, read-out: Control of weed species after post-emergence application, ECHCG
[12] = Application rate 500 g/Ha, 100=total damage to plant, 0=no damage to plant, read-out: Control of weed species after post-emergence application, ELEIN
[13] = Application rate 500 g/Ha, 100=total damage to plant, 0=no damage to plant, read-out: Control of weed species after post-emergence application, EPHHL
[14] = Application rate 500 g/Ha, 100=total damage to plant, 0=no damage to plant, read-out: Control of weed species after post-emergence application, IPOHE
[15] = Application rate 500 g/Ha, 100=total damage to plant, 0=no damage to plant, read-out: Control of weed species after post-emergence application, LOLPE
[16] = Application rate 500 g/Ha, 100=total damage to plant, 0=no damage to plant, read-out: Control of weed species after post-emergence application, SETFA

| SMILES | pest or weed control at 500 g/ha [1, 8] [%] | pest or weed control at 500 g/ha [2, 9] [%] | pest or weed control at 500 g/ha [3, 10] [%] | pest or weed control at 500 g/ha [4, 11] [%] | pest or weed control at 500 g/ha (Eleusine indica (ELEIN); [12]) [%] | pest or weed control at 500 g/ha [5, 13] [%] | pest or weed control at 500 g/ha [6, 14] [%] | pest or weed control at 500 g/ha (Lolium perenne (LOLPE); [15]) [%] | pest or weed control at 500 g/ha (Setaria faberi (SETFA); [16]) [%] | further results |
| --- | --- | --- | --- | --- | --- | --- | --- | --- | --- | --- |
| O=S(=O)([N-]CC[n+]1ccc(-c2ncccn2)cn1)C(F)(F)F [Compound A225] | – | – | – | – | – | – | – | – | – | pest or weed control at 500 g/ha ([1]; Application Rate 500 g/Ha, Method A, read-out: Control of weed species after post-emergence application, AMAPA (100=total damage to plant; 0=no damage to plant)): 100%; pest or weed control at 500 g/ha ([2]; Application Rate 500 g/Ha, Method A, read-out: Control of weed species after post-emergence application, CHEAL (100=total damage to plant; 0=no damage to plant)): 90%; pest or weed control at 500 g/ha ([3]; Application Rate 500 g/Ha, Method A, read-out: Control of weed species after post-emergence application, DIGSA (100=total damage to plant; 0=no damage to plant)): 60%; pest or weed control at 500 g/ha ([4]; Application Rate 500 g/Ha, Method A, read-out: Control of weed species after post-emergence application, ECHCG (100=total damage to plant; 0=no damage to plant)): 30%; pest or weed control at 500 g/ha (Eleusine indica (ELEIN); Application Rate 500 g/Ha, Method A, read-out: Control of weed species after post-emergence application, ELEIN (100=total damage to plant; 0=no damage to plant)): 90%; pest or weed control at 500 g/ha ([5]; Application Rate 500 g/Ha, Method A, read-out: Control of weed species after post-emergence application, EPHHL (100=total damage to plant; 0=no damage to plant)): 100%; pest or weed control at 500 g/ha ([6]; Application Rate 500 g/Ha, Method A, read-out: Control of weed species after post-emergence application, IPOHE (100=total damage to plant; 0=no damage to plant)): 70%; pest or weed control at 500 g/ha (Lolium perenne (LOLPE); Application Rate 500 g/Ha, Method A, read-out: Control of weed species after post-emergence application, LOLPE (100=total damage to plant; 0=no damage to plant)): 30%; pest or weed control at 500 g/ha (Setaria faberi (SETFA); Application Rate 500 g/Ha, Method A, read-out: Control of weed species after post-emergence application, SETFA (100=total damage to plant; 0=no damage to plant)): 30% |
| COP(=O)(C[n+]1ccc(-c2ccncn2)cn1)OC.O=S(=O)([O-])C(F)(F)F [Compound A237] | – | – | – | – | – | – | – | – | – | Control of weed species after post-emergence application, AMAPA (100=total damage to plant; 0=no damage to plant) [1, 7]: 60; Control of weed species after post-emergence application, CHEAL (100=total damage to plant; 0=no damage to plant) [2, 7]: 10; Control of weed species after post-emergence application, DIGSA (100=total damage to plant; 0=no damage to plant) [3, 7]: 50; Control of weed species after post-emergence application, ECHCG (100=total damage to plant; 0=no damage to plant) [4, 7]: 10; Control of weed species after post-emergence application, ELEIN (100=total damage to plant; 0=no damage to plant) (Eleusine indica (ELEIN); [7]): 70; Control of weed species after post-emergence application, EPHHL (100=total damage to plant; 0=no damage to plant) [5, 7]: 0; Control of weed species after post-emergence application, IPOHE (100=total damage to plant; 0=no damage to plant) [6, 7]: 50; Control of weed species after post-emergence application, LOLPE (100=total damage to plant; 0=no damage to plant) (Lolium perenne (LOLPE); [7]): 10; Control of weed species after post-emergence application, SETFA (100=total damage to plant; 0=no damage to plant) (Setaria faberi (SETFA); [7]): 20 |
| O=C(O)CC[n+]1ccc(-c2ccc(C(F)(F)F)nn2)cn1 [Compound A126] | 100 | 80 | 80 | 80 | 90 | 100 | 30 | 70 | 100 | – |
| N#Cc1ccnc(-c2cc[n+](CCCS(=O)(=O)[O-])nc2)n1 [Compound A147] | 40 | 50 | 20 | 30 | 20 | 70 | 60 | 40 | 40 | – |
| Cc1cc(Cl)cnc1-c1cc[n+](CCCS(=O)(=O)[O-])nc1 [Compound A102] | 20 | 50 | 10 | 10 | 10 | 20 | 0 | 10 | 10 | – |
| O=S(=O)([O-])CC[n+]1ccc(-c2cccc(C(F)(F)F)n2)cn1 [Compound A74] | 60 | 30 | 50 | 60 | 80 | 60 | 50 | 60 | 80 | – |
